Test results reported in patent US12091425B2 (AMGEN INC., priority 2016, dated 2024).

Legend:
[1] = tested on: OPM-2 human multiple myeloma cell line; assay: Cell Viability Assay (OPM-2 10 FBS); format: cell-based; details: Homo sapiens, OPM-2 cells, 16 h, CellTiter-Glo
Outline: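 IC50 from 4-parameter logistic fit of CellTiter-Glo luminescence. 3000 cells/well, 10% FBS medium, serial compound dilutions, 16 h, 37 °C/5% CO2; read 25 min post-reagent.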

[2] = target: T1, Mcl-1/Bim interaction, recombinant human Mcl-1 (171-327) (Homo sapiens, UniProt Q07820); assay: Cell free Mcl-1: Bim Affinity Assay (Mcl-1 HTRF); format: binding; details: TR-FRET, 0.1 nM Mcl-1 (171-327), 0.05 nM biotin-Bim (51-76)
T1 construct: made in house
Outline: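 Compounds were mixed with the protein and a biotinylated Bim peptide spanning human residues 51-76. Plates were left overnight, then TR-FRET signal was measured. A four-parameter sigmoidal model applied to duplicate competition data gave IC50.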

T1 sequence (Q07820 171-327): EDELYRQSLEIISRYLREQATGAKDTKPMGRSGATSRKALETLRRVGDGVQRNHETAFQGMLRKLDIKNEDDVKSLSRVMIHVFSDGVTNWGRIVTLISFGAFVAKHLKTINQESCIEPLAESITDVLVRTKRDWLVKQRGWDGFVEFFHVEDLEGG

Row | Structure (SMILES) | IC50 ([1]; OPM-2, 16 h) [nM] | IC50 [2] [nM] | IC50 [1] [nM]
1 | C[C@@H]1[C@@H](C)C/C=C/[C@H](OCCNc2ccccn2)[C@@H]2CC[C@H]2CN2C[C@@]3(CCCc4cc(Cl)ccc43)COc3ccc(cc32)C(=O)NS1(=O)=O [Example 12, (1S,3′R,6′R,7′S,8′E,11′S,12′R)-6-chloro-11′,12′-dimethyl-7′-(2-(2-pyridinylamino)ethoxy)-3,4-dihydro-2H,15′H-spiro[naphthalene-1,22′-[20]oxa[13]thia[1,14]diazatetracyclo[14.7.2.0˜3,6˜.0˜19,24˜]pentacosa[8,16,18,24]tetraen]-15′-one 13′,13′-dioxide] | 404 | 3.37 | –
2 | C[C@@H]1[C@@H](C)C/C=C/[C@H](OCCN(C)c2ccccn2)[C@@H]2CC[C@H]2CN2C[C@@]3(CCCc4cc(Cl)ccc43)COc3ccc(cc32)C(=O)NS1(=O)=O [Example 13, (1S,3′R,6′R,7′S,8′E,11′S,12′R)-6-chloro-11′,12′-dimethyl-7′-(2-(methyl(2-pyridinyl)amino)ethoxy)-3,4-dihydro-2H,15′H-spiro[naphthalene-1,22′-[20]oxa[13]thia[1,14]diazatetracyclo[14.7.2.0˜3,6˜.0˜19,24˜]pentacosa[8,16,18,24]tetraen]-15′-one 13′,13′-dioxide] | 312 | 0.685 | –
3 | C[C@@H]1[C@@H](C)C/C=C/[C@H](OCCBr)[C@@H]2CC[C@H]2CN2C[C@@]3(CCCc4cc(Cl)ccc43)COc3ccc(cc32)C(=O)NS1(=O)=O [Example 14, (1S,3′R,6′R,7′S,8′E,11′S,12′R)-7′-(2-bromoethoxy)-6-chloro-11′,12′-dimethyl-3,4-dihydro-2H,15′H-spiro[naphthalene-1,22′-[20]oxa[13]thia[1,14]diazatetracyclo[14.7.2.0^3,6.0^19,24]pentacosa[8,16,18,24]tetraen]-15′-one 13′,13′-dioxide] | 1100 | 3.92 | –
4 | C[C@@H]1[C@@H](C)C/C=C/[C@H](OCCS(N)(=O)=O)[C@@H]2CC[C@H]2CN2C[C@@]3(CCCc4cc(Cl)ccc43)COc3ccc(cc32)C(=O)NS1(=O)=O [Example 15, 2-(((1S,3′R,6′R,7′S,8′E,11′S,12′R)-6-chloro-11′,12′-dimethyl-13′,13′-dioxido-15′-oxo-3,4-dihydro-2H-spiro[naphthalene-1,22′-[20]oxa[13]thia[1,14]diazatetracyclo[14.7.2.0^3,6.0^19,24]pentacosa[8,16,18,24]tetraen]-7′-yl)oxy)ethanesulfonamide] | 870 | 0.393 | –
5 | C[C@@H]1[C@@H](C)/C=C/C[C@H](OCCN2CCOCC2)[C@@H]2CC[C@H]2CN2C[C@@]3(CCCc4cc(Cl)ccc43)COc3ccc(cc32)C(=O)NS1(=O)=O [Example 16, (1S,3′R,6′R,7′S,9′E,11′S,12′R)-6-chloro-11′,12′-dimethyl-7′-(2-(4-morpholinyl)ethoxy)-3,4-dihydro-2H,15′H-spiro[naphthalene-1,22′-[20]oxa[13]thia[1,14]diazatetracyclo[14.7.2.0^3,6.0^19,24]pentacosa [9,16,18,24]tetraen]-15′-one 13′,13′-dioxide] | – | 2.21 | 3580
6 | O=C1NS(=O)(=O)NCC/C=C/[C@H](O)[C@@H]2CC[C@H]2CN2C[C@@]3(CCCc4cc(Cl)ccc43)COc3ccc1cc32 [Example 19, (1S,3′R,6′R,7′S,8′E)-6-chloro-7′-hydroxy-3,4-dihydro-2H,15′H-spiro[naphthalene-1,22′-[20]oxa[13]thia[1,12,14]triazatetracyclo[14.7.2.0^3,6.0^19,24]pentacosa[8,16,18,24]tetraen]-15′-one 13,13′ dioxide] | 1220 | 0.494 | –
7 | O=C1NS(=O)(=O)N(CC2CC2)CC/C=C/[C@H](O)[C@@H]2CC[C@H]2CN2C[C@@]3(CCCc4cc(Cl)ccc43)COc3ccc1cc32 [Example 20, (1S,3′R,6′R,7′S,8′E)-6-chloro-12′-(cyclopropylmethyl)-7′-hydroxy-3,4-dihydro-2H,15′H-spiro[naphthalene-1,22′-[20]oxa[13]thia[1,12,14]triazatetracyclo[14.7.2.0^3,6.0^19,24]pentacosa[8,16,18,24]tetraen]-15′-one 13,13′-dioxide] | 818 | 0.85 | –
8 | O=C1NS(=O)(=O)N(CC2CCCO2)CCC=CC(O)C2CCC2CN2CC3(CCCc4cc(Cl)ccc43)COc3ccc1cc32 (stereo not shown) [Example 21] | 1080 | 0.806 | –
9 | COCCOCCN1CC/C=C/[C@H](O)[C@@H]2CC[C@H]2CN2C[C@@]3(CCCc4cc(Cl)ccc43)COc3ccc(cc32)C(=O)NS1(=O)=O [Example 22, (1S,3′R,6′R,7′S,8′E)-6-chloro-7′-hydroxy-12′-(2-(2-methoxyethoxy)ethyl)-3,4-dihydro-2H,15′H-spiro[naphthalene-1,22′-[20]oxa[13]thia[1,12,14]triazatetracyclo[14.7.2.0^3,6.0^19,24]pentacosa[8,16,18,24]tetraen]-15′-one 13,13′-dioxide] | 276 | 0.37 | –
10 | CNC(=O)CN1CC/C=C/[C@H](O)[C@@H]2CC[C@H]2CN2C[C@@]3(CCCc4cc(Cl)ccc43)COc3ccc(cc32)C(=O)NS1(=O)=O [Example 23, 2-((1S,3′R,6′R,7′S,8′E)-6-chloro-7′-hydroxy-13′,13′-dioxido-15′-oxo-3,4-dihydro-2H,12′H-spiro[naphthalene-1,22′-[20]oxa[13]thia[1,12,14]triazatetracyclo[14.7.2.0^3,6.0^19,24]pentacosa[8,16,18,24]tetraen]-12′-yl)-N-methylacetamide] | 3210 | 0.314 | –
11 | CN(C)C(=O)CN1CC/C=C/[C@H](O)[C@@H]2CC[C@H]2CN2C[C@@]3(CCCc4cc(Cl)ccc43)COc3ccc(cc32)C(=O)NS1(=O)=O [Example 24, 2-((1S,3′R,6′R,7′S,8′E)-6-chloro-7′-hydroxy-13′,13′-dioxido-15′-oxo-3,4-dihydro-2H,12′H-spiro[naphthalene-1,22′-[20]oxa[13]thia[1,12,14]triazatetracyclo[14.7.2.0^3,6.0^19,24]pentacosa[8,16,18,24]tetraen]-12′-yl)-N,N-dimethylacetamide] | 683 | 0.465 | –
12 | COCCOCCN1[C@@H](C)C/C=C/[C@H](O)[C@@H]2CC[C@H]2CN2C[C@@]3(CCCc4cc(Cl)ccc43)COc3ccc(cc32)C(=O)NS1(=O)=O [Example 25, (1S,3′R,6′R,7′S,8′E,11′S)-6-chloro-7′-hydroxy-12′-(2-(2-methoxyethoxy)ethyl)-11′-methyl-3,4-dihydro-2H,15′H-spiro[naphthalene-1,22′-[20]oxa[13]thia[1,12,14]triazatetracyclo[14.7.2.0^3,6.0^19,24]pentacosa[8,16,18,24]tetraen]-15′-one 13,13′-dioxide] | 166 | 0.246 | –
13 | COCCN1[C@@H](C)C/C=C/[C@H](O)[C@@H]2CC[C@H]2CN2C[C@@]3(CCCc4cc(Cl)ccc43)COc3ccc(cc32)C(=O)NS1(=O)=O [Example 26, (1S,3′R,6′R,7′S,8′E,11′S)-6-chloro-7′-hydroxy-12′-(2-methoxyethyl)-11′-methyl-3,4-dihydro-2H,15′H-spiro[naphthalene-1,22′-[20]oxa[13]thia[1,12,14]triazatetracyclo[14.7.2.0^3,6.0^19,24]pentacosa[8,16,18,24]tetraen]-15′-one 13,13′-dioxide] | 312 | 0.205 | –
14 | COCCN1[C@@H](C)C/C=C/[C@H](OC)[C@@H]2CC[C@H]2CN2C[C@@]3(CCCc4cc(Cl)ccc43)COc3ccc(cc32)C(=O)NS1(=O)=O [Example 27, (1S,3′R,6′R,7′S,8′E,11′S)-6-chloro-7′-methoxy-12′-(2-methoxyethyl)-11′-methyl-3,4-dihydro-2H,15′H-spiro[naphthalene-1,22′-[20]oxa[13]thia[1,12,14]triazatetracyclo[14.7.2.0^3,6.0^19,24]pentacosa[8,16,18,24]tetraen]-15′-one 13,13′-dioxide] | 970 | 0.422 | –
15 | C[C@H]1C/C=C/[C@H](O)[C@@H]2CC[C@H]2CN2C[C@@]3(CCCc4cc(Cl)ccc43)COc3ccc(cc32)C(=O)NS(=O)(=O)N1CC1CC1 [Example 28, (1S,3′R,6′R,7′S,8′E,11′S)-6-chloro-12′-(cyclopropylmethyl)-7′-hydroxy-11′-methyl-3,4-dihydro-2H,15′H-spiro[naphthalene-1,22′-[20]oxa[13]thia[1,12,14]triazatetracyclo[14.7.2.0^3,6.0^19,24]pentacosa[8,16,18,24]tetraen]-15′-one 13,13′-dioxide] | 1700 | 0.8 | –
16 | COCCN1CC/C=C/[C@H](O)[C@@H]2CC[C@H]2CN2C[C@@]3(CCCc4cc(Cl)ccc43)COc3ccc(cc32)C(=O)NS1(=O)=O [Example 31, (1S,3′R,6′R,7′S,8′E)-6-chloro-7′-hydroxy-12′-(2-methoxyethyl)-3,4-dihydro-2H,15′H-spiro[naphthalene-1,22′-[20]oxa[13]thia[1,12,14]triazatetracyclo[14.7.2.0^3,6.0^19,24]pentacosa[8,16,18,24]tetraen]-15′-one 13′,13′-dioxide] | 621 | 0.492 | –
17 | COC(=O)CN1CC/C=C/[C@H](O)[C@@H]2CC[C@H]2CN2C[C@@]3(CCCc4cc(Cl)ccc43)COc3ccc(cc32)C(=O)NS1(=O)=O [Example 32, methyl((1S,3′R,6′R,7′S,8′E)-6-chloro-7′-hydroxy-13′,13′-dioxido-15′-oxo-3,4-dihydro-2H,12′H-spiro[naphthalene-1,22′-[20]oxa[13]thia[1,12,14]triazatetracyclo[14.7.2.0^3,6.0^19,24]pentacosa[8,16,18,24]tetraen]-12′-yl)acetate] | 546 | 0.623 | –
